Measurements reported in patent US20110237448A1, “CARBOHYDRATE BINDING MODULE WITH AFFINITY FOR INSOLUBLE XYLAN” (The Board of Trustees of the University of Illinois, priority 2009, published 2011).
Positions count from the first letter of the chain named. Entries after “also recorded” stand apart in the source; their conditions may differ.

Tests used:
[1] = target: Fibrobacter succinogenes S85 FSUAxe6B truncational mutant TM5 (FPd-1 domain), SEQ ID NO: 2 (Fibrobacter succinogenes, UniProt C9RS24); experiment: Isothermal titration calorimetric (ITC) analysis of TM5 (FPd-1 domain); type: binding; settings: 25° C., 100 μM protein, 50 mM Na2HPO4—HCl buffer pH 7.0, 100 mM NaCl
Method: Isothermal titration calorimetric analysis was conducted to determine whether the FPd-1 domain can bind to soluble substrates. TM5 was tested for binding with arabinoxylan, xylobiose, and xylopentaose (FIG. 10). If there is binding affinity between two materials, a binding heat that follows a pattern such as that for CaCl2 vs. EDTA in the positive control will be observed.
For isothermal titration calorimetric (ITC) analysis, measurements were performed at 25° C. using a VP-ITC calorimeter (MicroCal, Inc, Northhampton, Mass.) following the manufacturer's recommended procedures. All samples were extensively dialyzed against 50 mM Na2HPO4—HCl buffer (pH 7.0), 100 mM NaCl, and all ligands were dissolved in the same buffer. The protein sample (100 μM) was injected with successive 10-μl aliquots of ligand at 300-s intervals.

[2] = target: T1, Fibrobacter succinogenes S85 FSUAxe6B variant D270A (Fibrobacter succinogenes, UniProt C9RS24, D270A); experiment: Steady state kinetic analysis, D270A mutant; type: biochemical; settings: tetra-acetyl-xylopyranoside as substrate, 37° C., 2 μM D270A protein
T1 sequence (C9RS24 30-552 D270A): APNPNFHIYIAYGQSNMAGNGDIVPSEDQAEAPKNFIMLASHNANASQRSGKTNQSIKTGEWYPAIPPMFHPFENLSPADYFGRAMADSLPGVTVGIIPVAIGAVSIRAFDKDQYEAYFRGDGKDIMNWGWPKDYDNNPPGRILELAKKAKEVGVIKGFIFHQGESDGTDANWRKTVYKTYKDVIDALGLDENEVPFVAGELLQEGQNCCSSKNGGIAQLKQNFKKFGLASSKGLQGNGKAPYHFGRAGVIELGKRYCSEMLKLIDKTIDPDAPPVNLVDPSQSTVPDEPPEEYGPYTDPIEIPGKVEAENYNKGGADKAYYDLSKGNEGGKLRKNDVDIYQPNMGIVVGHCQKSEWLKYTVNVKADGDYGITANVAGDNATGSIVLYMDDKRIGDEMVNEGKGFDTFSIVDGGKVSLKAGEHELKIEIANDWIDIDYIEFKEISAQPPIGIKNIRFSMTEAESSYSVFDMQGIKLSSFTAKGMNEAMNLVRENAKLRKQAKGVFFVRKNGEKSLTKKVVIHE
Method: (§1) Site-directed mutagenesis—Site-directed mutagenesis was carried out using the QuikChange Multi Site-Directed Mutagenesis Kit (Stratagene), according to the manufacturer's instructions.
(§2) Enzyme assays and steady state kinetics—Acetylxylan esterase activity was assayed using tetra-acetyl-xylopyranoside (Toronto Research Chemicals Inc., Ontario, Canada) for all proteins in this study, and the released of acetic acid was measured using an acetic acid detection kit (Megazyme, Bray, Ireland) following the manufacturer's instructions. The reduction of NADH was monitored continuously at an absorbance of 340 nm using Synergy 2 Microplate reader (BioTek, Winooski, Vt.) using the path-length correction feature. All assays were carried out at 37° C. […] The concentrations of the ingredients R1 and R2 solutions were pre-determined by the manufacturer (Megazyme). […] For active-site mutants with lower activity, the kinetic parameters were determined at a concentration of 10 μM for E194N protein and 2 μM for E194A, D270N, and D270A proteins, respectively. Initial rates were plotted against the tetra-acetyl-xylopyranoside concentrations, and the kinetic parameters were determined by Michaelis-Menten equation utilizing Graph Pad Prism v5.01.

[3] = test system: Fibrobacter succinogenes S85 acetylxylan esterase Axe6B; settings: comparison with Axe6A; substrate not stated at the place; cited from earlier work
[4] = target: T2, Fibrobacter succinogenes S85 FSUAxe6B truncational mutant TM1 (CE6+CBM6) (Fibrobacter succinogenes, UniProt C9RS24); experiment: Steady state kinetic analysis, truncational mutant TM1; type: biochemical; settings: tetra-acetyl-xylopyranoside as substrate, 37° C.
T2 construct: primers F1/R2, modified pET-28a, E. coli BL21(DE3), purified
T2 sequence (C9RS24 30-479 limits assumed): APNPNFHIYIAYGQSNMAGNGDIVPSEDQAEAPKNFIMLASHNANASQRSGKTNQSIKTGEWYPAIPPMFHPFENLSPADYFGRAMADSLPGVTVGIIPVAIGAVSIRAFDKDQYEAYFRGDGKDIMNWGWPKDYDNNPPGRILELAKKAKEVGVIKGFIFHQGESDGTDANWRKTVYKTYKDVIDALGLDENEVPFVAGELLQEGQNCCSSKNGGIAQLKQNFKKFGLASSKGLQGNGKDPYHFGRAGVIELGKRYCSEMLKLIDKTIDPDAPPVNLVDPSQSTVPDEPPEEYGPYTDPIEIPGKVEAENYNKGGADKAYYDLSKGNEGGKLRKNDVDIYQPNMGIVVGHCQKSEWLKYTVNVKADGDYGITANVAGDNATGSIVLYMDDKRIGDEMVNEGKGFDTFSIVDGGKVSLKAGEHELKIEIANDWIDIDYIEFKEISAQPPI
From the text: (§3) To delineate and investigate the modules present in FSUAxe6B for functional role assignments, a gene truncation strategy was adopted. To create the truncated proteins, the glycines in loop regions were selected as the terminal amino acids of our constructs. The construct TM1 (CE6+CBM6) was designed to investigate the contribution of FPd-1 to the wild-type (WT) protein in terms of its catalytic (esterase) and carbohydrate binding activities. Likewise, TM2 (CE6) was constructed for identifying the role of the putative CBM6 on the two potential functions of the protein. […]
(§4) Assays were carried out at 37° C. […] The concentrations of the ingredients R1 and R2 solutions were pre-determined by the manufacturer (Megazyme). […] Initial rates were plotted against the tetra-acetyl-xylopyranoside concentrations, and the kinetic parameters were determined by Michaelis-Menten equation utilizing Graph Pad Prism v5.01.
(§5) Enzyme assays and steady state kinetics—Acetylxylan esterase activity was assayed using tetra-acetyl-xylopyranoside (Toronto Research Chemicals Inc., Ontario, Canada) for all proteins in this study, and the released of acetic acid was measured using an acetic acid detection kit (Megazyme, Bray, Ireland) following the manufacturer's instructions. […] The concentrations of the ingredients R1 and R2 solutions were pre-determined by the manufacturer (Megazyme). […]

[5] = target: T3, Fibrobacter succinogenes S85 FSUAxe6B variant E194A (Fibrobacter succinogenes, UniProt C9RS24, E194A); experiment: Steady state kinetic analysis, E194A mutant; type: biochemical; settings: tetra-acetyl-xylopyranoside as substrate, 37° C., 2 μM E194A protein
T3 sequence (C9RS24 30-552 E194A): T1 sequence (C9RS24 30-552 D270A) with E165A, A241D
Method: as §1, §2

[6] = test system: Fibrobacter succinogenes S85 acetylxylan esterase Axe6A; settings: from ref. 16; substrate not stated at the place; cited from earlier work
[7] = target: T4, Fibrobacter succinogenes S85 acetylxylan esterase FSUAxe6B (Axe6B, FSU2267), wild-type (WT), SEQ ID NO: 31 (Fibrobacter succinogenes, UniProt C9RS24); experiment: Steady state kinetic analysis of acetylxylan esterase activity, FSUAxe6B wild-type (WT); type: biochemical; settings: tetra-acetyl-xylopyranoside as substrate, 37° C.
T4 sequence (C9RS24 30-552): T1 sequence (C9RS24 30-552 D270A) with A241D
Method: Assays were carried out at 37° C. Five microliters of 1 μM enzyme and 20 μl of R2 enzyme solution (containing acetate kinase, pyruvate kinase, and […] in 100 mM Tris-HCl, pH 7.4, 3 mM MgCl2) were thoroughly mixed. The tetra-acetyl-xylopyranoside was prepared in […] of R1 solution (NADH, ATP, phospho-enol-pyruvate, and pyruvate). The concentrations of the ingredients R1 and R2 solutions were pre-determined by the manufacturer (Megazyme). Both solutions were incubated separately at 37° C. for 3 min to allow equilibration, and then mixed to start the reaction. Initial rates were plotted against the tetra-acetyl-xylopyranoside concentrations, and the kinetic parameters were determined by Michaelis-Menten equation utilizing Graph Pad Prism v5.01.
Enzyme assays and steady state kinetics—Acetylxylan esterase activity was assayed using tetra-acetyl-xylopyranoside (Toronto Research Chemicals Inc., Ontario, Canada) for all proteins in this study, and the released of acetic acid was measured using an acetic acid detection kit (Megazyme, Bray, Ireland) following the manufacturer's instructions. The reduction of NADH was monitored continuously at an absorbance of 340 nm using Synergy 2 Microplate reader (BioTek, Winooski, Vt.) using the path-length correction feature. All assays were carried out at 37° C. […]

[8] = target: T5, Fibrobacter succinogenes S85 FSUAxe6B truncational mutant TM2 (CE6) (Fibrobacter succinogenes, UniProt C9RS24); experiment: Steady state kinetic analysis, truncational mutant TM2; type: biochemical; settings: tetra-acetyl-xylopyranoside as substrate, 37° C., means ± standard errors
T5 construct: primers F1/R3, modified pET-28a, E. coli BL21(DE3), purified
T5 sequence (C9RS24 30-297): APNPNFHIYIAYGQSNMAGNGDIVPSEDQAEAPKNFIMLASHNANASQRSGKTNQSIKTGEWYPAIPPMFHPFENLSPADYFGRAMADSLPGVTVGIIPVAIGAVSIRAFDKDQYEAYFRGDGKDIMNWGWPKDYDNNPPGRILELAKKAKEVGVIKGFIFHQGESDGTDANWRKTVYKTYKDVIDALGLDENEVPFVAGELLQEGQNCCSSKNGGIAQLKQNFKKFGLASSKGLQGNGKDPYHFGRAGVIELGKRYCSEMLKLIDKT
From the text: as §3, §4, §5

[9] = target: T6, Fibrobacter succinogenes S85 FSUAxe6B variant E194N (Fibrobacter succinogenes, UniProt C9RS24, E194N); experiment: Steady state kinetic analysis, E194N mutant; type: biochemical; settings: tetra-acetyl-xylopyranoside as substrate, 37° C., 10 μM E194N protein
T6 sequence (C9RS24 30-552 E194N): T1 sequence (C9RS24 30-552 D270A) with E165N, A241D
Method: as §1, §2

Row | SMILES | ITC binding [1] | kcat [2] [s⁻¹] | kcat/Km [2] [M⁻¹ s⁻¹] | Km [3] [µM] | kcat/Km [4] [M⁻¹ s⁻¹] | kcat [5] [s⁻¹] | kcat/Km [5] [M⁻¹ s⁻¹] | Km [6] [µM] | kcat/Km [7] [M⁻¹ s⁻¹] | kcat ([7]; means ± standard errors) [s⁻¹] | kcat [8] [s⁻¹] | kcat [9] [s⁻¹] | kcat/Km [9] [M⁻¹ s⁻¹]
1 | OC1OC[C@@H](O[C@@H]2OC[C@@H](O[C@@H]3OC[C@@H](O[C@@H]4OC[C@@H](O[C@@H]5OC[C@@H](O)[C@H](O)[C@H]5O)[C@H](O)[C@H]4O)[C@H](O)[C@H]3O)[C@H](O)[C@H]2O)[C@H](O)[C@H]1O (some centres unmarked) [xylopentaose] | no significant peaks were observed; also recorded: does not bind | – | – | – | – | – | – | – | – | – | – | – | –
2 | OC1OC[C@@H](O[C@@H]2OC[C@@H](O)[C@H](O)[C@H]2O)[C@H](O)[C@H]1O (some centres unmarked) [xylobiose] | no significant peaks were observed; also recorded: does not bind | – | – | – | – | – | – | – | – | – | – | – | –
3 | CC(=O)O[C@@H]1OC[C@@H](OC(C)=O)[C@H](OC(C)=O)[C@H]1OC(C)=O [tetra-acetyl-xylopyranoside] | – | 1.8 | 9000 | 60 | 170000 | 2.9 | 14000 | 80 | 190000 | 15 | 13 | 2.8 | 400
